{"source": "patent US20190240225A1", "about": "“COMBINATION OF A BCL-2 INHIBITOR AND A MCL-1 INHIBITOR, USES AND PHARMACEUTICAL COMPOSITIONS THEREOF” (LES LABORATOIRES SERVIER, priority 2016, published 2019)", "tested_on": "Acute Myeloid Leukemia (AML) cell lines", "experiment": "CellTiterGlo viability, panel of AML cell lines", "format": "cell-based", "conditions": "all 5 AML cell lines of combination (c); single agent; read-out: IC50s", "procedure": "In addition, all media contained penicillin (100 IU/ml), streptomycin (100 μg/ml) and L-glutamine (2 mM).\nCell lines were cultured at 37° C. in a humidified atmosphere containing 5% CO2 and expanded in T-150 flasks. In all cases cells were thawed from frozen stocks, expanded through ≥1 passage using appropriate dilutions, counted and assessed for viability using a CASY cell counter prior to plating 150 ul/well at the densities indicated in Table 1 into 96-well plates. All cell lines were determined to be free of mycoplasma contamination in-house.\nStock solutions of compounds were prepared at a concentration of 5 mM in DMSO and stored at −20° C.\nIn order to analyse the activity of the compounds as single agents, cells were seeded and treated with nine 2-fold serial dilutions of each compound dispensed individually directly into the cell assay plates. Effects of the compounds on cell viability were assessed after 3 days of incubation at 37° C./5% CO2 by quantification of cellular ATP levels using CellTiterGlo at 75 μL reagent/well. All the experiments were performed in triplicates. Luminescence was quantified on a multipurpose plate reader. Single agent IC50s were calculated using standard four-parametric curve fitting. […]\nIn order to analyse the activity of the compounds in combination, cells were seeded and treated with seven or eight 3.16-fold serial dilutions of each compound dispensed, either individually or in all possible permutations in a checkerboard fashion, directly into the cell assay plates as indicated in FIG. 9. Effects of the single agents as well as their checkerboard combinations on cell viability were assessed after 3 days of incubation at 37° C./5% CO2 by quantification of cellular ATP levels using CellTiterGlo at 75 μL reagent/well. […] Luminescence was quantified on a multipurpose plate reader.\nPotential synergistic interactions between compound combinations were assessed using the Excess Inhibition 2D matrix according to the Loewe additivity model and are reported as Synergy Score (Lehar et al, Nat Biotechnol. 2009 July; 27(7): 659-666). […]", "data": [{"smiles": "COc1ccccc1-c1nccc(COc2ccccc2C[C@@H](Oc2ncnc3sc(-c4ccc(F)cc4)c(-c4ccc(OCCN5CCN(C)CC5)c(Cl)c4C)c23)C(=O)O)n1", "note": "[Compound 3, (2R)-2-{[(5Sa)-5-{3-chloro-2-methyl-4-[2-(4-methylpiperazin-1-yl)ethoxy]phenyl}-6-(4-fluorophenyl)thieno[2,3-d]pyrimidin-4-yl]oxy}-3-(2-{[2-(2-methoxyphenyl)pyrimidin-4-yl]methoxy}phenyl)propanoic acid]", "values": [{"measurement": "IC50", "value": "< 200", "unit": "nM"}]}]}
